Experimental data as given in paper PMC3747596 (PLoS ONE, 2013).
Read-outs that look alike come from different tables or passages of the source.

Assays:
mice = conditions: cited from earlier work
[1] = Caco-2 cell monolayer permeation; conditions: human, Caco-2, pH 7.4
μ opioid receptor = molecular target: T1, μ opioid receptor (Homo sapiens, UniProt P35372); test: Radioligand displacement, μ; format: binding; conditions: binding curve File S1, Mu Opiod Receptor, [3H]DAMGO (0.3 nM), Standard Binding Buffer, read-out: Ki
T1 construct: expressed in transfected cells
T1 sequence (P35372 whole entry): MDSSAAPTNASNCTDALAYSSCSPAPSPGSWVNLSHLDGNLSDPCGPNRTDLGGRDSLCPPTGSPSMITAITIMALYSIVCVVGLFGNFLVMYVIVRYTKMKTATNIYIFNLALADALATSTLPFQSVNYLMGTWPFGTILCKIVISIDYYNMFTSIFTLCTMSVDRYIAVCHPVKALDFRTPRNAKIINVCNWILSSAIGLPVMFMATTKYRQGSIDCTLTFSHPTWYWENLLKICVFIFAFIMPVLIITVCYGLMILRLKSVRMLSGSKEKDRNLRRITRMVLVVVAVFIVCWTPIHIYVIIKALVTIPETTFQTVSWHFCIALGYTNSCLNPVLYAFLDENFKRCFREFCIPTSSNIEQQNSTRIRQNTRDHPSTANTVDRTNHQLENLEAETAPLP

NCc1ccc2[nH]c3c(c2c1)CC1(O)C2Cc4ccc(O)c5c4C1(CCN2CC1CC1)C3O5 (stereo not shown) [5′-aminomethylnaltrindole]
toxic signs (mice; 20 mg/kg i.p.): gasping and convulsions

O=C1CC[C@@]2(O)[C@H]3Cc4ccc(O)c5c4[C@@]2(CCN3CC2CC2)[C@H]1O5 [Naltrexone]
LD50 (mice; mice, s.c.): 570 mg/kg | Papp A→B at 120 min [1]: 590 nm/s | Papp B→A at 120 min [1]: 2700 nm/s | efflux ratio at 120 min [1]: 5.7

DAM80: reference ligand of the mu opioid binding curve
Ki (μ opioid receptor; listed as DAM30): 0.41 nM | Ki (μ opioid receptor): 0.54 nM
